Experimental data as given in US11345711B2, “8,9-dihydroimidazo[1,2-a]pyrimido[5,4-e]pyrimidin-5(6H)-ones” (IMPACT THERAPEUTICS (SHANGHAI), INC, priority 2016, dated 2022).
Read-outs that look alike come from different tables or passages of the source.

What was measured:
LoVo cells = assay: MTT based cell viability assay on LoVo cells; conditions: Homo sapiens, LoVo, 72 h, 3 d, read-out: IC50, growth inhibition of LoVo cells
Method in brief: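 Inhibition of LoVo proliferation was derived as IC50 from a sigmoidal dose-response fit of cell survival. Readout was MTT (0.5 mg/mL, 4 h) with absorbance at 552/630/690 nm, after 3-day treatment at 37 °C. Eight-point series from 10 μM to 0.01 μM, DMSO control, 1% DMSO final.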

NCI-H1299 cells = assay: MTT based cell viability assay on NCI-H1299 cells; conditions: Homo sapiens, read-out: IC50, growth inhibition of NCI-H1299 cells
Method in brief: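 Viability read-out was MTT reduction (0.5 mg/mL, 4 h, absorbance 552/630/690 nm) after 3-day compound exposure at 37 °C of NCI-H1299 cells seeded at 1000 per well. Dilutions spanned 10 μM–0.01 μM in DMSO, final DMSO 1‰. Survival-versus-concentration curves were fitted sigmoidally to give IC50.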

Wee1 (h) = Wee1 (h) (Homo sapiens, UniProt P30291); assay: Wee1 kinase (h) detection method, [γ-33P]-ATP filter assay; type: biochemical
Wee1 (h), sequence (P30291 whole entry): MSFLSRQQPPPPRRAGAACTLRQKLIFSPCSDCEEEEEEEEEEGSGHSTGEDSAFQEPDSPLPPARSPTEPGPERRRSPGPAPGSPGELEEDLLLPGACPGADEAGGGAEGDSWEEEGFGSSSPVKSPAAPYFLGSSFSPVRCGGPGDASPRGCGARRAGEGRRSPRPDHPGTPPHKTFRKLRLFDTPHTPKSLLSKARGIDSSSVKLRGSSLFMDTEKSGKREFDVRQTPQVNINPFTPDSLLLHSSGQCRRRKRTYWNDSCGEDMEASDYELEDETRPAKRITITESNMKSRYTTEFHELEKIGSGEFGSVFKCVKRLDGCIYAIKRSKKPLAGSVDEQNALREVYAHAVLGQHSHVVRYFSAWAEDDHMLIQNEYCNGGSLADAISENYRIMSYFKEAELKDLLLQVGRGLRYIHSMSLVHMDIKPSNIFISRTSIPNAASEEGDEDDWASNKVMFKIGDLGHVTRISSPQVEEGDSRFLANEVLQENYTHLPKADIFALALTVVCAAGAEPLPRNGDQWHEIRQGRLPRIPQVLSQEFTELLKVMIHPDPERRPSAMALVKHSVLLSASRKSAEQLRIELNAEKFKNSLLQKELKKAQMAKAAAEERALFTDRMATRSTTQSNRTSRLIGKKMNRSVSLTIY

| IC50 (LoVo cells) | IC50 (NCI-H1299 cells; NCI-H1299, NCI-H1299 cells) | Inh. (%) of Wee1 kinase enzyme activity (Wee1 (h); C 0.01 μm compound) | Inh. (%) of Wee1 kinase enzyme activity (Wee1 (h); C 0.1 μm compound) | Inh. (%) of Wee1 kinase enzyme activity (Wee1 (h); C 1 μm compound) | IC50 (NCI-H1299 cells; NCI-H1299 cells) | Structure (SMILES) |
| --- | --- | --- | --- | --- | --- | --- |
| 0.0543 µM | 0.0923 µM | 24% | 86% | 99% | – | Cc1cc(Nc2ncc3c(n2)N2CCN=C2N(c2c(F)cccc2Cl)C3=O)ccc1N1CCC(N(C)C)CC1 [Example 119, 6-(2-Chloro-6-fluorophenyl)-2-((4-(4-(dimethylamino)piperidin-1-yl)-3-methylphenyl)amino)-8,9-dihydroimidazo[1,2-a]pyrimido[5,4-e]pyrimidin-5(6H)-one] |
| 0.0652 µM | – | 22% | 86% | 98% | 0.207 µM | CN1CCN(c2ccc(Nc3ncc4c(n3)N3CCN=C3N(c3c(Cl)cccc3Br)C4=O)cc2Br)CC1 [Example 162, 6-(2-Bromo-6-chlorophenyl)-2-((3-bromo-4-(4-methylpiperazin-1-yl)phenyl)amino)-8,9-dihydroimidazo[1,2-a]pyrimido[5,4-e]pyrimidin-5(6H)-one] |
| 0.281 µM | – | – | – | 94% | 0.36 µM | COc1cc(Nc2ncc3c(n2)N2CCN=C2N(c2c(Cl)cccc2Cl)C3=O)ccc1N1CCNCC1 [Example 178, 6-(2,6-Dichlorophenyl)-2-((3-methoxy-4-(piperazin-1-yl)phenyl)amino)-8,9-dihydroimidazo[1,2-a]pyrimido[5,4-e]pyrimidin-5(6H)-one] |

Continued, molecule first:

| Structure (SMILES) | IC50 (LoVo cells) | IC50 (NCI-H1299 cells; NCI-H1299, NCI-H1299 cells) | Inh. (%) of Wee1 kinase enzyme activity (Wee1 (h); C 0.01 μm compound) | Inh. (%) of Wee1 kinase enzyme activity (Wee1 (h); C 0.1 μm compound) | Inh. (%) of Wee1 kinase enzyme activity (Wee1 (h); C 1 μm compound) | IC50 (NCI-H1299 cells; NCI-H1299 cells) |
| --- | --- | --- | --- | --- | --- | --- |
| CN1CCN(c2ccc(Nc3ncc4c(n3)N3CCN=C3N(c3c(F)cccc3Cl)C4=O)cc2C(F)(F)F)CC1 [Example 48, 6-(2-Chloro-6-fluorophenyl)-2-((4-(4-methylpiperazin-1-yl)-3-(trifluoromethyl)phenyl)amino)-8,9-dihydroimidazo[1,2-a]pyrimido[5,4-e]pyrimidin-5(6H)-one] | 0.117 µM | 1.12 µM | 29% | 75% | 91% | – |
| CN1CCN(c2ccc(Nc3ncc4c(n3)N3CCN=C3N(c3c(F)cccc3Cl)C4=O)cc2Cl)CC1 [Example 46, 6-(2-Chloro-6-fluorophenyl)-2-((3-chloro-4-(4-methylpiperazin-1-yl)phenyl)amino)-8,9-dihydroimidazo[1,2-a]pyrimido[5,4-e]pyrimidin-5(6H)-one] | 0.0261 µM | 0.528 µM | 36% | 85% | 97% | – |
| Cc1cccc(C)c1N1C(=O)c2cnc(Nc3ccc(N4C[C@@H](C)N(C)[C@@H](C)C4)cc3)nc2N2CCN=C21 [Example 84, 6-(2,6-Dimethylphenyl)-2-((4-((3S,5R)-3,4,5-trimethylpiperazin-1-yl)phenyl)amino)-8,9-dihydroimidazo[1,2-a]pyrimido[5,4-e]pyrimidin-5(6H)-one] | 3.06 µM | – | 18% | 49% | 93% | 0.836 µM |
| O=C1c2cnc(Nc3ccc(CN4CCOCC4)cc3)nc2N2CCN=C2N1c1c(F)cccc1Cl [Example 33, 6-(2-Chloro-6-fluorophenyl)-2-((4-(morpholinomethyl)phenyl)amino)-8,9-dihydroimidazo[1,2-a]pyrimido[5,4-e]pyrimidin-5(6H)-one] | > 100 µM | – | – | – | 87% | > 10 µM |
| CN(C)C1CCN(c2ccc(Nc3ncc4c(n3)N3CCN=C3N(c3c(F)cccc3Cl)C4=O)cc2Cl)CC1 [Example 117, 6-(2-Chloro-6-fluorophenyl)-2-((3-chloro-4-(4-(dimethylamino)piperidin-1-yl)phenyl)amino)-8,9-dihydroimidazo[1,2-a]pyrimido[5,4-e]pyrimidin-5(6H)-one] | 0.0662 µM | 0.103 µM | 22% | 84% | 98% | – |
